This test addresses T1, human α-thrombin (Homo sapiens, UniProt P00734).
T1 construct: Human α-thrombin, human factor Xa and human plasmin were obtained from Enzyme Research Laboratories; purchased Enzyme Research Laboratories (South Bend, Ind.)
In words: In vitro inhibition of purified enzymes: Ki determination, hydrolysis of peptide p-nitroanilide substrate by thrombin. The test is classed as biochemical. The text has this:
Reagents: All buffer salts were obtained from Sigma Chemical Company (St. Louis, Mo.), and were of the highest purity available.
Human α-thrombin, human factor Xa and human plasmin were obtained from Enzyme Research Laboratories (South Bend, Ind.). Bovine α-chymotrypsin (Sigma C4129), bovine trypsin (Sigma T8642) and human kidney cell urokinase (Sigma U5004) were obtained from Sigma. Human leukocyte elastase was obtained from Elastin Products (Pacific, Mo.).
Ki Determinations: All assays are based on the ability of the test compound to inhibit the enzyme catalyzed hydrolysis of a peptide p-nitroanilide substrate. […] The final concentrations for each of the substrates is listed below. In general, substrate concentrations are lower than the experimentally determined value for Km. Test compounds are prepared as a 1.0 mg/ml solution in DMSO. […]
Data corresponding to less than 10% of the total substrate hydrolysis were used in the calculations. The ratio of the velocity (rate of change in absorbance as a function of time) for a sample containing no test compound is divided by the velocity of a sample containing test compound, and is plotted as a function of test compound concentration. The data are fit to a linear regression, and the value of the slope of the line calculated. The inverse of the slope is the experimentally determined Ki value. […]

pKi: −log10 of the molar value. Structures can show the parent of a compound that is named as a salt.

As a reminder, the pKi is −log10 of the Ki, conventionally taken in molar units. `Cc1nc(N)ccc1CNC(=O)Cc1c(Cl)ccc(NCC(F)(F)c2ccc(F)c3ccccc23)c1F` [Example 5, N-[(6-Amino-2-methyl(3-pyridyl))methyl]-2-(3-{[2,2-difluoro-2-(4-fluoronaphthyl)ethyl]amino}-6-chloro-2-fluorophenyl)acetamide Hydrochloride Salt]: the pKi was 8.55.
